Laboratory results reported in US11945794B2, “Nuclear transport modulators and uses thereof” (Karyopharm Therapeutics Inc., priority 2013, dated 2024).

Legend:
Assay in all cases: MTT cell proliferation assay
Assay type in all cases: cell-based
3T3 cells = conditions: Mus musculus, NIH3T3, approximately 64-72 hours
Method: (§1) The MTT cell proliferation assay was used to study the cytotoxic properties of the compounds. The assay was performed according to the method described by Roche Molecular Biochemicals, with minor modifications. The assay is based on the cleavage of the tetrazolium salt, MTT, in the presence of an electron-coupling reagent. The water-insoluble formazan salt produced must be solubilized in an additional step. Cells grown in a 96-well tissue culture plate were incubated with the MTT solution for approximately 4 hours. After this incubation period, a water-insoluble formazan dye formed. After solubilization, the formazan dye was quantitated using a scanning multi-well spectrophotometer (ELISA reader). […] The cells were seeded at 5,000-10,000 cells in each well of 96-well plate in 100 μL of fresh culture medium and were allowed to attach overnight. The stock solutions of the compounds were diluted in 100 μL cell culture medium to obtain eight concentrations of each test compound, ranging from 1 nM to 30 μM. […] All optical densities were measured at 490 nm using a Vmax Kinetic Microplate Reader (Molecular Devices). In most cases, the assay was performed in duplicate and the results were presented as a mean percent inhibition to the negative control±SE. The following formula was used to calculate the percent of inhibition: Inhibition (%)=(1−(ODo/OD))×100.
(§2) The compounds were tested against Z138, MM1S and 3T3 cells. The Z138 cell line is a mature B-cell acute lymphoblastic leukemia cell line derived from a patient with chronic lumphocytic leukemia. The MM1S cell line was established from the peripheral blood of a human multiple myeloma patient. 3T3 cells are standard fibroblast cells; they were originally isolated from Swiss mouse embryo tissue.

MM1S cells = conditions: Homo sapiens, MM1.S, approximately 64-72 hours
Method: as §1, §2

Z138 cells = conditions: Homo sapiens, Z-138, approximately 64-72 hours
Method: as §1, §2

SMILES	IC50 (3T3 cells) [µM]	IC50 (MM1S cells) [µM]	IC50 (Z138 cells) [µM]
O=C(O)/C(=C/n1cnc(-c2cc(C(F)(F)F)cc(C(F)(F)F)c2)n1)c1cccnc1 [Compound 103, (E)-3-(3-(3,5-bis(trifluoromethyl)phenyl)-1H-1,2,4-triazol-1-yl)-2-(pyridin-3-yl)acrylic acid]	> 30	> 30	> 30
CC(C)OC(=O)/C(=C/n1cnc(-c2cc(C(F)(F)F)cc(C(F)(F)F)c2)n1)c1ccncc1 [Compound 106, isopropyl (E)-3-(3-(3,5-bis(trifluoromethyl)phenyl)-1H-1,2,4-triazol-1-yl)-2-(pyridin-4-yl)acrylate]		0.1 to 5	
O=C(O)/C(=C/n1cnc(-c2cc(C(F)(F)F)cc(C(F)(F)F)c2)n1)c1ccncc1 [Compound 107, (E)-3-(3-(3,5-bis(trifluoromethyl)phenyl)-1H-1,2,4-triazol-1-yl)-2-(pyridin-4-yl)acrylic acid]		5 to 30	
CC(C)OC(=O)/C(=C/n1cnc(-c2cc(C(F)(F)F)cc(C(F)(F)F)c2)n1)c1nccs1 [Compound 109, isopropyl (Z)-3-(3-(3,5-bis(trifluoromethyl)phenyl)-1H-1,2,4-triazol-1-yl)-2-(thiazol-2-yl)acrylate]		0.1 to 5	
N#C/C(=C/n1cnc(-c2cc(C(F)(F)F)cc(C(F)(F)F)c2)n1)c1nccs1 [Compound 110, (Z)-3-(3-(3,5-bis(trifluoromethyl)phenyl)-1H-1,2,4-triazol-1-yl)-2-(thiazol-2-yl)acrylonitrile]		0.1 to 5	
CN(C)C(=O)/C(=C/n1cnc(-c2cc(C(F)(F)F)cc(C(F)(F)F)c2)n1)c1cccnc1 [Compound 112, (E)-3-(3-(3,5-bis(trifluoromethyl)phenyl)-1H-1,2,4-triazol-1-yl)-N,N-dimethyl-2-(pyridin-3-yl)acrylamide]		> 30	
Cc1noc(C)c1/C(=C\n1cnc(-c2cc(C(F)(F)F)cc(C(F)(F)F)c2)n1)C(=O)O [Compound 117, (E)-3-(3-(3,5-bis(trifluoromethyl)phenyl)-1H-1,2,4-triazol-1-yl)-2-(3,5-dimethylisoxazol-4-yl) acrylic acid]		> 30	
COc1ccc(/C(=C\n2cnc(-c3cc(C(F)(F)F)cc(C(F)(F)F)c3)n2)C(=O)O)cn1 [Compound 121, (E)-3-(3-(3,5-bis(trifluoromethyl)phenyl)-1H-1,2,4-triazol-1-yl)-2-(6-methoxypyridin-3-yl) acrylic acid]		> 30	
CC(C)OC(=O)/C(=C/n1cnc(-c2cc(C(F)(F)F)cc(C(F)(F)F)c2)n1)c1ccoc1 [Compound 122, isopropyl (E)-3-(3-(3,5-bis (trifluoromethyl)phenyl)-1H-1,2,4-triazol-1-yl)-2-(furan-3-yl) acrylate]		0.1 to 5	
O=C(O)/C(=C/n1cnc(-c2cc(C(F)(F)F)cc(C(F)(F)F)c2)n1)c1cncnc1 [Compound 123, (E)-3-(3-(3,5-bis(trifluoromethyl)phenyl)-1H-1,2,4-triazol-1-yl)-2-(pyrimidin-5-yl) acrylic acid]		> 30	
O=C(O)/C(=C/n1cnc(-c2cc(C(F)(F)F)cc(C(F)(F)F)c2)n1)c1cncc(F)c1 [Compound 125, (E)-3-(3-(3,5-bis(trifluoromethyl)phenyl)-1H-1,2,4-triazol-1-yl)-2-(5-fluoropyridin-3-yl)acrylic acid]		> 30	
NC(=O)/C(=C/n1cnc(-c2cc(C(F)(F)F)cc(C(F)(F)F)c2)n1)c1cncc(F)c1 [Compound 126, (E)-3-(3-(3,5-Bis(trifluoromethyl)phenyl)-1H-1,2,4-triazol-1-yl)-2-(5-fluoropyridin-3-yl)acrylamide]	> 30	< 0.1	< 0.1
COc1ccc(/C(=C\n2cnc(-c3cc(C(F)(F)F)cc(C(F)(F)F)c3)n2)C(N)=O)cn1 [Compound 127, (E)-3-(3-(3,5-bis-(trifluoromethyl)-phenyl)-1H-1,2,4-triazol-1-yl)-2-(6-methoxypyridin-3-yl)acrylamide]		0.1 to 5	
O=C(O)/C(=C/n1cnc(-c2cc(C(F)(F)F)cc(C(F)(F)F)c2)n1)c1ccoc1 [Compound 128, (E)-3-(3-(3,5-bis(trifluoromethyl)phenyl)-1H-1,2,4-triazol-1-yl)-2-(furan-3-yl) acrylic acid]		> 30	
NC(=O)/C(=C/n1cnc(-c2cc(C(F)(F)F)cc(C(F)(F)F)c2)n1)c1ccoc1 [Compound 129, (E)-3-(3-(3,5-bis(trifluoromethyl)phenyl)-1H-1,2,4-triazol-1-yl)-2-(furan-3-yl) acrylamide]		0.1 to 5	
Cn1cc(/C(=C\n2cnc(-c3cc(C(F)(F)F)cc(C(F)(F)F)c3)n2)C(=O)O)cn1 [Compound 131, (E)-3-(3-(3,5-bis(trifluoromethyl)phenyl)-1H-1,2,4-triazol-1-yl)-2-(1-methyl-1H-pyrazol-4-yl)acrylic acid]		0.1 to 5	
NC(=O)/C(=C/n1cnc(-c2cc(C(F)(F)F)cc(C(F)(F)F)c2)n1)c1ccnnc1 [Compound 133, (E)-3-(3-(3,5-bis(trifluoromethyl)phenyl)-1H-1,2,4-triazol-1-yl)-2-(pyridazin-4-yl)acrylamide]	5 to 30	< 0.1	< 0.1
NC(=O)/C(=C/n1cnc(-c2cc(C(F)(F)F)cc(C(F)(F)F)c2)n1)c1cccc(F)n1 [Compound 134, (E)-3-(3-(3,5-bis(trifluoromethyl)phenyl)-1H-1,2,4-triazol-1-yl)-2-(6-fluoropyridin-2-yl)acrylamide]	0.1 to 5	< 0.1	0.1 to 5
NC(=O)/C(=C/n1cnc(-c2cc(C(F)(F)F)cc(C(F)(F)F)c2)n1)c1cccnc1F [Compound 135, (E)-3-(3-(3,5-bis(trifluoromethyl)phenyl)-1H-1,2,4-triazol-1-yl)-2-(2-fluoropyridin-3-yl)acrylamide]	> 30	< 0.1	0.1 to 5
NC(=O)/C(=C/n1cnc(-c2cc(C(F)(F)F)cc(C(F)(F)F)c2)n1)c1ccc(F)nc1 [Compound 139, (E)-3-(3-(3,5-bis(trifluoromethyl)phenyl)-1H-1,2,4-triazol-1-yl)-2-(6-fluoropyridin-3-yl)acrylamide]	> 30	0.1 to 5	0.1 to 5
NC(=O)/C(=C/n1cnc(-c2cc(C(F)(F)F)cc(C(F)(F)F)c2)n1)c1cccnc1Cl [Compound 144, (E)-3-(3-(3,5-bis(trifluoromethyl)phenyl)-1H-1,2,4-triazol-1-yl)-2-(2-chloropyridin-3-yl)acrylamide]	> 30	0.1 to 5	0.1 to 5
NC(=O)/C(=C/n1cnc(-c2cc(C(F)(F)F)cc(C(F)(F)F)c2)n1)c1ccccc1 [Compound 146, (E)-3-(3-(3,5-bis(trifluoromethyl)phenyl)-1H-1,2,4-triazol-1-yl)-2-phenylacrylamide]	> 30	0.1 to 5	0.1 to 5
NC(=O)/C(=C/n1cnc(-c2cc(C(F)(F)F)cc(C(F)(F)F)c2)n1)c1ccc(-c2ccccc2)c(F)c1 [Compound 150, (E)-3-(3-(3,5-bis(trifluoromethyl)phenyl)-1H-1,2,4-triazol-1-yl)-2-(2-fluorobiphenyl-4-yl)acrylamide]	> 30	5 to 30	5 to 30
NC(=O)/C(=C\n1cnc(-c2cc(C(F)(F)F)cc(C(F)(F)F)c2)n1)c1ccc(F)nc1 [Compound 154, (Z)-3-(3-(3,5-bis(trifluoromethyl)phenyl)-1H-1,2,4-triazol-1-yl)-2-(6-fluoropyridin-3-yl)acrylamide]		0.1 to 5	
